Converted amounts (≈) assume the structure as drawn. The source made the active and inactive calls. The calls are words filed in the database; no cut-off is given here. Where a SMILES comes first, the peptide text is derived from it. [ ]: non-standard residue; d: D form. The star is where a group is joined. Succinyl(20-O-(20S)-CPT) = CC[C@@]1(OC(=O)CCC(=O)*)C(=O)OCc2c1cc1n(c2=O)Cc2cc3ccccc3nc2-1; Dnp = O=[N+]([O-])c1ccc(*)c([N+](=O)[O-])c1; DEAC = CCN(CC)c1ccc2cc(C(=O)*)c(=O)oc2c1; Nle = CCCC[C@H](N)C(=O)O
Experiments:
[1] = tested on: MDA-MB-231; test: Anti-proliferative activity against human MDA-MB-231 cells assessed as inhibition of cell proliferation at 1XIC50 measured after 72 hrs by time-kill curve analysis; type: functional
[2] = tested on: 4T1; test: Anti-migration activity against mouse 4T1 cells assessed as cell motility at 1.5 uM incubated for 2 hrs followed by PBS washing and incubation in complete medium for 24 hrs by wound healing assay (reference value: 68.9%); type: functional
[3] = Aqueous solubility of the compound in water by UV/Vis spectrophotometry relative to free camptothecin; type: physicochemical; details: buffer
[4] = Induction of hemolysis in mouse erythrocytes assessed as hemolysis rate at 0.3 uM incubated for 4 hrs; type: toxicity, cell-based, Erythrocyte; details: read-out: Activity
[5] = Induction of hemolysis in mouse erythrocytes assessed as hemolysis rate at 30 uM incubated for 4 hrs; type: toxicity, cell-based, Erythrocyte; details: read-out: Activity
[6] = Cytostatic activity against HEK293T cells assessed as reduction in cell viability incubated for 72 hrs by MTT assay; type: toxicity, cell-based, HEK-293T; details: human
[7] = tested on: Erythrocyte; test: Induction of hemolysis in mouse erythrocytes at 0.03 to 30 uM incubated for 4 hrs; type: toxicity, cell-based; details: dose 0.03-30 µM
[8] = tested on: MDA-MB-231; test: Anti-proliferative activity against human MDA-MB-231 cells assessed as inhibition of cell proliferation at 0.5XIC50 to 1XIC50 measured after 36 to 72 hrs by time-kill curve analysis; type: functional, cell-based; details: time 36-72 hrs
[9] = Drug uptake in human MDA-MB-231 cells assessed as increase in blue fluorescence intensity at 10 uM measured after 2 to 12 hrs by SYBR Green I staining based live cell imaging analysis; type: ADME; details: mda-mb-231, 10 µM, time 2-12 hrs
[10] = Cytostatic activity against mouse L929 cells assessed as reduction in cell viability incubated for 72 hrs by MTT assay; type: toxicity, cell-based
[11] = tested on: 4T1; test: Cytostatic activity against mouse 4T1 cells expressing low SORT1 assessed as reduction in cell viability incubated for 72 hrs by MTT assay; type: functional, cell-based; details: 4T1, 72 h
[12] = tested on: MDA-MB-231; test: Cytostatic activity against human MDA-MB-231 cells overexpressing SORT1 assessed as reduction in cell viability incubated for 72 hrs by MTT assay; type: functional, cell-based; details: MDA-MB-231, 72 h
[13] = tested on: MDA-MB-231; test: Anti-proliferative activity against human MDA-MB-231 cells assessed as inhibition of cell proliferation at 1XIC50 measured at <36 hrs by time-kill curve analysis; type: functional
[14] = tested on: MDA-MB-231; test: Anti-migration activity against human MDA-MB-231 cells assessed as cell motility at 1.5 uM incubated for 2 hrs followed by PBS washing and incubation in complete medium for 24 hrs by wound healing assay (reference value: 55.3%); type: functional
[15] = Prodrug conversion in 5% human serum assessed as CPT release by measuring increase in fluorescence intensity at 50 uM measured for 6 days by fluorescence spectrophotometric analysis; type: ADME, cell-free; details: 144 h, time 6 day
[16] = Prodrug conversion in 5% human serum assessed as CPT release by measuring increase in fluorescence intensity at 50 uM measured at 0 hrs by fluorescence spectrophotometric analysis; type: ADME, cell-free
[17] = Prodrug conversion in human MDA-MB-231 cells overexpressing SORT1 assessed as CPT release by measuring increase in fluorescence intensity at 1.5 uM measured for 120 hrs by fluorescence based analysis; type: ADME, cell-based; details: mda-mb-231, 120 h
[18] = tested on: MDA-MB-231; test: Anti-proliferative activity against human MDA-MB-231 cells assessed as inhibition of cell proliferation at 1.5 uM measured for 0 to 72 hrs by time-kill curve analysis; type: functional; details: time 0-72 hrs
[19] = tested on: MDA-MB-231; test: Anti-proliferative activity against human MDA-MB-231 cells assessed as inhibition of cell proliferation at 1XIC50 measured for 0 to 72 hrs in presence of TH19P01 by time-kill curve analysis; type: functional, cell-based; details: time 0-72 hrs
[20] = tested on: Erythrocyte; test: Induction of hemolysis in mouse erythrocytes at >3 uM incubated for 4 hrs in presence of TH19P01; type: toxicity, cell-based
[21] = tested on: 4T1; test: Cytostatic activity against mouse 4T1 cells expressing low SORT1 assessed as reduction in cell viability incubated for 72 hrs in presence of TH19P01 by MTT assay; type: functional, cell-based; details: 4T1, 72 h
[22] = tested on: MDA-MB-231; test: Anti-proliferative activity against human MDA-MB-231 cells assessed as inhibition of cell proliferation at 1XIC50 measured for 0 to 72 hrs by time-kill curve analysis; type: functional, cell-based; details: time 0-72 hrs
[23] = tested on: MDA-MB-231; test: Anti-migration activity against human MDA-MB-231 cells assessed as cell motility at 1.5 uM incubated for 2 hrs in presence of TH19P01 followed by PBS washing and incubation in complete medium for 24 hrs by wound healing assay (reference value: 55.3%); type: functional
[24] = tested on: MDA-MB-231; test: Cytostatic activity against human MDA-MB-231 cells overexpressing SORT1 assessed as reduction in cell viability incubated for 72 hrs in presence of TH19P01 by MTT assay; type: functional, cell-based; details: MDA-MB-231, 72 h
[25] = tested on: 4T1; test: Anti-migration activity against mouse 4T1 cells at 1.5 uM incubated for 2 hrs in presence of TH19P01 followed by PBS washing and incubation in complete medium for 24 hrs by wound healing assay; type: functional, cell-based
[26] = tested on: MDA-MB-231; test: Anti-proliferative activity against human MDA-MB-231 cells assessed as inhibition of cell proliferation at 1XIC50 measured after 72 hrs in presence of TH19P01 by time-kill curve analysis; type: functional
[27] = Drug uptake in human MDA-MB-231 cells assessed as increase in blue fluorescence intensity at 10 uM measured after 2 to 12 hrs in presence of TH19P01 by SYBR Green I staining based live cell imaging analysis; type: ADME; details: mda-mb-231, 10 µM, time 2-12 hrs
[28] = Aqueous solubility of the compound in water by UV/Vis spectrophotometry; type: physicochemical
[29] = Drug uptake in human MDA-MB-231 cells assessed as increase in blue fluorescence intensity at 10 uM by SYBR Green I staining based live cell imaging analysis; type: ADME; details: mda-mb-231, 10 µM, TDE = time-dependent effect, time 2-12 hrs

Compound	inhibition (INH) [1] [%]	Activity [2] [%]	IC50 at 72 h [6] [nM]	Activity [7]	IC50 at 72 h [10] [nM]	IC50 [11] [nM]	IC50 [12] [nM]	Activity [14] [%]	further results
CCCC[C@H](NC(=O)[C@H](CC(N)=O)NC(=O)[C@H](CCCNC(=N)N)NC(=O)[C@@H](NC(=O)CNC(=O)[C@H](C)NC(=O)[C@H](CCCCNC(=O)CCC(=O)O[C@]1(CC)C(=O)OCc2c1cc1n(c2=O)Cc2cc3ccccc3nc2-1)NC(=O)[C@H](C)NC(=O)[C@H](CCCNC(=N)N)NC(=O)[C@@H](NC(=O)CNC(C)=O)C(C)C)C(C)C)C(=O)N[C@@H](Cc1ccccc1)C(=O)N[C@@H](CCCCNC(=O)CCC(=O)O[C@]1(CC)C(=O)OCc2c1cc1n(c2=O)Cc2cc3ccccc3nc2-1)C(=O)N[C@@H](CO)C(=O)N[C@@H](CCC(=O)O)C(=O)N[C@@H](CO)C(=O)N[C@@H](Cc1ccc(O)cc1)C(N)=O (Ac-GVRAK(Succinyl(20-O-(20S)-CPT))AGVRN[Nle]FK(Succinyl(20-O-(20S)-CPT))SESY-NH2)	45.3	58.6	11100	Toxic	> 100000	2050	1470	13.3	fold change (FC) [3]: 90; hemolysis at 4 h, 0.3 µM [4]: 1.5%; hemolysis at 4 h, 30 µM [5]: < 5%; Activity [8]: Dose-Dependent Effect; Drug uptake [9]: Active; inhibition (INH) [13]: <10%
CCCC[C@H](NC(=O)[C@H](CC(N)=O)NC(=O)[C@H](CCCNC(=N)N)NC(=O)[C@@H](NC(=O)CNC(=O)[C@H](C)NC(=O)[C@H](CCCCNC(=O)CCC(=O)O[C@]1(CC)C(=O)OCc2c1cc1n(c2=O)Cc2cc3ccccc3nc2-1)NC(=O)[C@H](CCCCNc1ccc([N+](=O)[O-])cc1[N+](=O)[O-])NC(=O)[C@H](C)NC(=O)[C@H](CCCNC(=N)N)NC(=O)[C@@H](NC(=O)CNC(C)=O)C(C)C)C(C)C)C(=O)N[C@@H](Cc1ccccc1)C(=O)N[C@@H](CCCCNc1ccc([N+](=O)[O-])cc1[N+](=O)[O-])C(=O)N[C@@H](CCCCNC(=O)CCC(=O)O[C@]1(CC)C(=O)OCc2c1cc1n(c2=O)Cc2cc3ccccc3nc2-1)C(=O)N[C@@H](CO)C(=O)N[C@@H](CCC(=O)O)C(=O)N[C@@H](CO)C(=O)N[C@@H](Cc1ccc(O)cc1)C(N)=O (Ac-GVRAK(Dnp)K(Succinyl(20-O-(20S)-CPT))AGVRN[Nle]FK(Dnp)K(Succinyl(20-O-(20S)-CPT))SESY-NH2)							1520		Drug metabolism [15]: Metabolite_Detected; Drug metabolism [16]: Metabolite_Notdetected; Drug metabolism [17]: Metabolite_Detected
CCCC[C@H](NC(=O)[C@H](CC(N)=O)NC(=O)[C@H](CCCNC(=N)N)NC(=O)[C@@H](NC(=O)CNC(=O)[C@H](C)NC(=O)[C@H](CCCCN)NC(=O)[C@H](C)NC(=O)[C@H](CCCNC(=N)N)NC(=O)[C@@H](NC(=O)CNC(C)=O)C(C)C)C(C)C)C(=O)N[C@@H](Cc1ccccc1)C(=O)N[C@@H](CCCCN)C(=O)N[C@@H](CO)C(=O)N[C@@H](CCC(=O)O)C(=O)N[C@@H](CO)C(=O)N[C@@H](Cc1ccc(O)cc1)C(N)=O (Ac-GVRAKAGVRN[Nle]FKSESY-NH2)		67.9	> 100000	Toxic	> 100000	> 100000	> 100000	46.3	inhibition at 1.5 µM [18]: < 10%
CC[C@@]1(O)C(=O)OCc2c1cc1n(c2=O)Cc2cc3ccccc3nc2-1 [CAMPTOTHECIN]	52.8	69.2	< 10	Toxic	15700	30	630	44.6	Activity [19]: Active; Activity [20]: Toxic; IC50 [21]: < 32 nM; Activity [22]: Active; Activity [23]: 37.7%; IC50 [24]: 720 nM; Activity [25]: Active; inhibition (INH) [26]: 50.8%; Drug uptake [27]: Active; solubility [28]: 3.6 µM (≈ 1.25 µg/mL)
CCCC[C@H](NC(=O)[C@H](CC(N)=O)NC(=O)[C@H](CCCNC(=N)N)NC(=O)[C@@H](NC(=O)CNC(=O)[C@H](C)NC(=O)[C@H](CCCCNC(=O)c1cc2ccc(N(CC)CC)cc2oc1=O)NC(=O)[C@H](C)NC(=O)[C@H](CCCNC(=N)N)NC(=O)[C@@H](NC(=O)CNC(C)=O)C(C)C)C(C)C)C(=O)N[C@@H](Cc1ccccc1)C(=O)N[C@@H](CCCCNC(C)=O)C(=O)N[C@@H](CO)C(=O)N[C@@H](CCC(=O)O)C(=O)N[C@@H](CO)C(=O)N[C@@H](Cc1ccc(O)cc1)C(N)=O (Ac-GVRAK(DEAC)AGVRN[Nle]FK(Ac)SESY-NH2)							> 100000		Drug uptake [29]: Tde
